Test results: patent US20250163047A1, “HETEROCYCLIC COMPOUNDS, COMPOSITIONS THEREOF, AND METHODS OF TREATMENT THEREWITH” (BeiGene, Ltd., priority 2022, published 2025)

Legend:
Cbl-b (aa36-427) = target: T1, Cbl-b (aa36-427) (Homo sapiens, UniProt Q13191); assay: Co-expressed Cbl-b with BirA biochemical assay (CBLB/E2-Ub binding, HTRF); details: 0.6 nM Cbl-b co-expressed with BirA, HTRF; read-out: co-express CBLB/E2-Ub-binding assay IC50
T1 construct: Cbl-b (aa36-427, in-house); made in house
Source text: (§1) The assay in the absence of a Cbl-b/Cbl inhibitor, where phosphorylation of Cbl-b/Cbl by the Src kinase allows UbcH5B-Ub to bind to Cbl-b/Cbl and brings the Bodipy-Fluorescein tagged ubiquitin in proximity to the streptavidin-terbium bound to the N-terminal biotinylated Avi-tagged Cbl-b/Cbl. […] The lack of a FRET signal indicates Cbl-b/Cbl is inhibited by the Cbl-b/Cbl inhibitor.

Cbl (aa49-434) = target: T2, Cbl (aa49-434) (Homo sapiens, UniProt P22681); assay: Co-expressed Cbl with BirA biochemical assay (CBL/E2-Ub binding, HTRF); details: 0.6 nM Cbl co-expressed with BirA, read-out: co-express CBL/E2-Ub-binding assay IC50
T2 construct: Cbl (aa49-434, in-house); made in house
T2 sequence (P22681 49-434): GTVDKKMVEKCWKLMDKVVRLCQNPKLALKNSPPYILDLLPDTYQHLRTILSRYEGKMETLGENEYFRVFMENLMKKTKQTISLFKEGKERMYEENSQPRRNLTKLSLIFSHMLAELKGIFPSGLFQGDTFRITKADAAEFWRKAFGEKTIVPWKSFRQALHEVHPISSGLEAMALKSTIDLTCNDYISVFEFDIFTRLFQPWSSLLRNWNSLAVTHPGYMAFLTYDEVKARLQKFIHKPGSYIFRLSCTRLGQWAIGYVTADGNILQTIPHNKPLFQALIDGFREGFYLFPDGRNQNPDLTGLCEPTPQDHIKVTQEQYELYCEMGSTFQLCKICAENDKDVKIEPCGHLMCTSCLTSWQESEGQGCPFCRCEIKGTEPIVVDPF
Source text: as §1

T1 sequence (Q13191 36-427): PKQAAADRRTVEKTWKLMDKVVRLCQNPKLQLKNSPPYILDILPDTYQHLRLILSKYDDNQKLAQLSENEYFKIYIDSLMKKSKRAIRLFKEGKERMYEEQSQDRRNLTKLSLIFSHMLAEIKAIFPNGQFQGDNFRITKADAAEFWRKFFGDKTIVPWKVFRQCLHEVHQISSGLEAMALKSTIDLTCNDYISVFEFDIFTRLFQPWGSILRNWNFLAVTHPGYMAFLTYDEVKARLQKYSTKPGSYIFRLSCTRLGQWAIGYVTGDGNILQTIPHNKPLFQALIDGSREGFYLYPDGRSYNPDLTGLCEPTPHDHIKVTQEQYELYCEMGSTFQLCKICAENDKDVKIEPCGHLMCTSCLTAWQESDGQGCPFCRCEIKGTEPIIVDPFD

Structure (SMILES) | IC50 (Cbl-b (aa36-427)) | IC50 (Cbl (aa49-434))
C[C@H]1CCCN(Cc2cc(C(=O)Nc3cccc(C4(Cc5nncn5C)COC4)c3)nn3cccc23)C1 [Compound B12, N-(3-{3-[(4-methyl-1,2,4-triazol-3-yl)methyl]oxetan-3-yl}phenyl)-4-{[(3S)-3-methylpiperidin-1-yl]methyl}pyrrolo[1,2-b]pyridazine-2-carboxamide] | 23.9 nM | 51.6 nM
Cc1cnc2c(C(=O)Nc3cncc([C@]4(c5nncn5C)C[C@@H](C)C4)c3)cc(CN[C@H]3C[C@@H](C)C3)cn12 [Compound A86, 3-methyl-N-(5-((1s, 3s)-3-methyl-1-(4-methyl-4H-1,2,4-triazol-3-yl)cyclobutyl)pyridin-3-yl)-6-((((1s, 3s)-3-methylcyclobutyl)amino)methyl)imidazo[1,2-a]pyridine-8-carboxamide] | 2.7 nM | 13 nM
Cn1cnnc1[C@]1(c2cccc(NC(=O)c3cc(CNC4(C)CC4)cn4ccnc34)c2)C[C@H](CC#N)C1 [Compound A25, N-(3-((1s, 3s)-3-(cyanomethyl)-1-(4-methyl-4H-1,2,4-triazol-3-yl)cyclobutyl)phenyl)-6-(((1-methylcyclopropyl)amino)methyl)imidazo[1,2-a]pyridine-8-carboxamide] | 1.5 nM | 10.5 nM
C[C@H]1CCCN(Cc2cc(C(=O)Nc3cccc([C@]4(c5nncn5C)C[C@@H](CC#N)C4)c3)nc3c(Cl)c[nH]c23)C1 [Compound B16, 3-chloro-N-(3-((1s,3R)-3-(cyanomethyl)-1-(4-methyl-4H-1,2,4-triazol-3-yl)cyclobutyl)phenyl)-7-(((S)-3-methylpiperidin-1-yl)methyl)-1H-pyrrolo[3,2-b]pyridine-5-carboxamide] | 1.7 nM | 16.1 nM
Cn1cnnc1[C@]1(c2cncc(NC(=O)c3cc(CNCC4CCC4)cn4c(F)cnc34)c2)C[C@H](C)C1 [Compound A71, 6-{[(cyclobutylmethyl)amino]methyl}-3-fluoro-N-{5-[(1r, 3s)-3-methyl-1-(4-methyl-1,2,4-triazol-3-yl)cyclobutyl]pyridin-3-yl}imidazo[1,2-a]pyridine-8-carboxamide] | 0.6 nM | 0.9 nM
Cn1cnnc1[C@]1(c2cccc(NC(=O)c3cc(CNCC4CCC4)cn4c(Cl)cnc34)c2)C[C@H](C)C1 [Compound A57, 3-chloro-6-(((cyclobutylmethyl)amino)methyl)-N-(3-((1s, 3s)-3-methyl-1-(4-methyl-4H-1,2,4-triazol-3-yl)cyclobutyl)phenyl)imidazo[1,2-a]pyridine-8-carboxamide] | 0.6 nM | 1.8 nM
Cn1cnnc1C[C@]1(c2cccc(NC(=O)c3cc(CNCC4(C)CCCC4)c4[nH]ccc4n3)c2)C[C@H](C#N)C1 [Compound B23, N-(3-((1r, 3r)-3-cyano-1-((4-methyl-4H-1,2,4-triazol-3-yl)methyl)cyclobutyl)phenyl)-7-((((1-methylcyclopentyl)methyl)amino)methyl)-1H-pyrrolo[3,2-b]pyridine-5-carboxamide] | 3.6 nM | 8.8 nM
CC(C)CNCc1cc(C(=O)Nc2cncc([C@]3(c4nncn4C)C[C@@H](C)C3)c2)nc2c(F)c[nH]c12 [Compound B48, 3-fluoro-7-((isobutylamino)methyl)-N-(5-((1s, 3s)-3-methyl-1-(4-methyl-4H-1,2,4-triazol-3-yl)cyclobutyl)pyridin-3-yl)-1H-pyrrolo[3,2-b]pyridine-5-carboxamide] | 0.89 nM | 3.2 nM
Cc1cnc2c(C(=O)Nc3cccc([C@]4(c5nncn5C)C[C@@H](C)C4)c3)cc(CNCC3CCC3)cn12 [Compound A53, 6-(((cyclobutylmethyl)amino)methyl)-3-methyl-N-(3-((1s, 3s)-3-methyl-1-(4-methyl-4H-1,2,4-triazol-3-yl)cyclobutyl)phenyl)imidazo[1,2-a]pyridine-8-carboxamide] | 2 nM | 7.7 nM
C[C@H](NCc1cc(C(=O)Nc2cccc([C@]3(c4nncn4C)C[C@@H](C)C3)c2)nc2cc[nH]c12)C1CC1 [Compound B3, 7-((((S)-1-cyclopropylethyl)amino)methyl)-N-(3-((1s,3R)-3-methyl-1-(4-methyl-4H-1,2,4-triazol-3-yl)cyclobutyl)phenyl)-1H-pyrrolo[3,2-b]pyridine-5-carboxamide] | 0.7 nM | 1.8 nM
C[C@H](NCc1cc(C(=O)Nc2cccc([C@]3(c4nncn4C)C[C@@H](C)C3)c2)c2ncc(Cl)n2c1)C1CC1 [Compound A58, 3-chloro-6-((((S)-1-cyclopropylethyl)amino)methyl)-N-(3-((1s,3R)-3-methyl-1-(4-methyl-4H-1,2,4-triazol-3-yl)cyclobutyl)phenyl)imidazo[1,2-a]pyridine-8-carboxamide] | 0.7 nM | 2.6 nM
Cn1cnnc1[C@]1(c2cccc(NC(=O)c3cc(CNC4(C)CC4)cn4ccnc34)c2)C[C@@H](C)C1 [Compound A90, N-(3-((1r, 3r)-3-methyl-1-(4-methyl-4H-1,2,4-triazol-3-yl)cyclobutyl)phenyl)-6-(((1-methylcyclopropyl)amino)methyl)imidazo[1,2-a]pyridine-8-carboxamide] | 0.5 nM | 3.2 nM
C[C@H](NCc1cc(C(=O)Nc2cccc([C@]3(c4nncn4C)C[C@@H](C)C3)c2)c2nccn2c1)C1CCCC1 [Compound A40, 6-((((S)-1-cyclopentylethyl)amino)methyl)-N-(3-((1s,3R)-3-methyl-1-(4-methyl-4H-1,2,4-triazol-3-yl)cyclobutyl)phenyl)imidazo[1,2-a]pyridine-8-carboxamide] | 1.6 nM | 3.1 nM
C[C@H]1CCCN(Cc2cc(C(=O)Nc3cccc([C@]4(c5nncn5C)C[C@@H](C)C4)c3)c3ncc(F)n3c2)C1 [Compound A6, 3-fluoro-6-{[(3S)-3-methylpiperidin-1-yl]methyl}-N-{3-[(1r, 3s)-3-methyl-1-(4-methyl-1,2,4-triazol-3-yl)cyclobutyl]phenyl}imidazo[1,2-a]pyridine-8-carboxamide] | 7.2 nM | 19.8 nM
Cn1cnnc1[C@]1(c2cccc(NC(=O)c3cc(CNC4(C)CC4)cc4c(Cl)cnn34)c2)C[C@H](C)C1 [Compound A96, 3-chloro-N-(3-((1s, 3s)-3-methyl-1-(4-methyl-4H-1,2,4-triazol-3-yl)cyclobutyl)phenyl)-5-(((1-methylcyclopropyl)amino)methyl)pyrazolo[1,5-a]pyridine-7-carboxamide] | 0.5 nM | 3.2 nM

Continued, values first:

IC50 (Cbl-b (aa36-427)) | IC50 (Cbl (aa49-434)) | Structure (SMILES)
1.8 nM | 2.8 nM | C[C@H](NCc1cc(C(=O)Nc2cccc([C@]3(c4nncn4C)C[C@@H](CC#N)C3)c2)nc2c1NCC21CC1)C1CC1 [Compound C36, N-(3-((1s,3R)-3-(cyanomethyl)-1-(4-methyl-4H-1,2,4-triazol-3-yl)cyclobutyl)phenyl)-7′-((((S)-1-cyclopropylethyl)amino)methyl)-1′,2′-dihydrospiro[cyclopropane-1,3′-pyrrolo[3,2-b]pyridine]-5′-carboxamide]
2 nM | 6.6 nM | Cn1cnnc1[C@]1(c2cccc(NC(=O)c3cc(CNCC4CCCCC4)c4c(n3)C(C)(C)CC4)c2)C[C@H](CC#N)C1 [Compound C14, N-(3-((1s, 3s)-3-(cyanomethyl)-1-(4-methyl-4H-1,2,4-triazol-3-yl)cyclobutyl)phenyl)-4-(((cyclohexylmethyl)amino)methyl)-7,7-dimethyl-6,7-dihydro-5H-cyclopenta[b]pyridine-2-carboxamide]
2.5 nM | 11.5 nM | Cn1cnnc1[C@]1(c2cccc(NC(=O)c3cc(CNC4(C)CCC4)c4c(n3)C(C)(C)CC4)c2)C[C@H](CC#N)C1 [Compound C40, N-(3-((1s, 3s)-3-(cyanomethyl)-1-(4-methyl-4H-1,2,4-triazol-3-yl)cyclobutyl)phenyl)-7,7-dimethyl-4-(((1-methylcyclobutyl)amino)methyl)-6,7-dihydro-5H-cyclopenta[b]pyridine-2-carboxamide]
2 nM | 5.9 nM | Cn1cnnc1[C@]1(c2cccc(NC(=O)c3cc(CNCC4CCC4)c4c(n3)C(C)(C)CN4)c2)C[C@H](C)C1 [Compound C49, 7-(((cyclobutylmethyl)amino)methyl)-3,3-dimethyl-N-(3-((1s, 3s)-3-methyl-1-(4-methyl-4H-1,2,4-triazol-3-yl)cyclobutyl)phenyl)-2,3-dihydro-1H-pyrrolo[3,2-b]pyridine-5-carboxamide]
0.7 nM | 1.2 nM | C[C@@H]1CN(Cc2cc(C(=O)Nc3cccc([C@]4(c5nncn5C)C[C@@H](CC#N)C4)c3)nc3c2NCC3(C)C)CC[C@@H]1F [Compound C47, 7-{[(3R,4S)-4-fluoro-3-methylpiperidin-1-yl]methyl}-3,3-dimethyl-N-{3-[(1s, 3s)-3-(cyanomethyl)-1-(4-methyl-1,2,4-triazol-3-yl)cyclobutyl]phenyl}-1H,2H-pyrrolo[3,2-b]pyridine-5-carboxamide]
